In the METLIN SMRT retention time set (Domingo-Almenara et al. 2019) one finds RP-LC retention time data, which are given here for 80 compounds.

This series is described as follows: gradient 5% acetonitrile 3 min, to 50% in 2 min, to 85% in 15 min, held 3 min, 100 µL/min. Conditions: column: Zorbax Extend-C18 2.1 x 50 mm; eluents: water / acetonitrile, 0.1% formic acid. The procedure, abridged:
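Standards, all pure, were combined into mixtures of ~100 molecules and run at 100 μL/min on a Zorbax Extend-C18 column (2.1 × 50 mm, 1.8 μm) with water and acetonitrile, each containing 0.1% formic acid. A coupled quadrupole time-of-flight mass spectrometer operated in positive and negative ionization mode. Retention time values come from computationally picked adduct peaks, each inspected manually.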
Compound `CCCN1CCN(C(=O)c2ccc3c(c2)Sc2ncccc2C(=O)N3CC)CC1` registered an RP-LC retention time of 579 s. `O=C(NCc1ccc(Br)cc1)C1CCN(C(=O)C2Sc3ccccc3NC2=O)CC1` (stereo not given) returned an RP-LC retention time of 782 s. In turn, `CN1CCC(N2CCN(C(=O)CCc3cn(C)nc3-c3ccc(F)cc3)CC2)CC1` gave an RP-LC retention time of 559 s. As for `COc1ccc(-c2nnc3n2CCN(Cc2scnc2C)C3)cc1`, the figure is 657 s. For `Cc1cc(N2CCN(C)CC2)nc2ccc(NC(=S)NCc3ccco3)cc12`, the RP-LC retention time is 564 s.

For `Cc1ccc(Cn2cccc2C(=O)C(=O)N2CCN(c3ccccn3)CC2)cc1C`, the RP-LC retention time stood at 726 s. As for `NS(=O)(=O)c1cccnc1Nc1cccc(Cl)c1`, the figure is 855 s; as for `Cc1c(-c2ccnc(N3CCC(C)CC3)n2)cnc2nc(-c3ccccc3)nn12`, 1320 s; as for `O=S(=O)(c1ccccc1Cl)N1CCc2nc(-c3ccc(F)cc3)ncc2C1`, 1100 s. Regarding `O=C(C1CCCN(c2cnc3nccnc3c2)C1)N1CCCCCC1` (stereo not given), the RP-LC retention time was 692 s.

Take `CC1CCCN(c2nc(C(=O)NC(C)C)cs2)C1` (stereo not given): the RP-LC retention time amounted to 1020 s. Compound `COC(=O)c1c(NCC2CC2)c2cccc(Cl)c2[nH]c1=O` registered an RP-LC retention time of 757 s. `O=C1CC(c2ccccc2)Oc2ccccc21` (stereo not given) showed an RP-LC retention time of 932 s. As for `Cc1ccc(S(=O)(=O)N(C)C)cc1-c1nnc(-c2ccc(F)cc2)o1`, the figure is 976 s; as for `CN1c2ccc(F)cc2C(=O)NC12CCN(C(=O)c1ccccc1F)CC2`, 745 s; as for `CN1Cc2ccccc2-n2ccnc2C12CCN(C(=O)c1cc(F)cc(F)c1)CC2`, 618 s. For the compound `Cc1cccc2c(C(=O)NC3CC3)cc(=O)[nH]c12`, the RP-LC retention time amounted to 614 s. Compound `Cc1ccc(-c2noc(C3CCCN3S(=O)(=O)c3cccc(Cl)c3C)n2)cc1` (stereo not given) returned an RP-LC retention time of 1270 s.

The compound `CC(C)n1cnc(S(=O)(=O)N2CCCC(C(=O)Nc3ccc(F)cc3)C2)c1` (stereo not given) displayed an RP-LC retention time of 765 s. `Cc1c(-c2noc(C(=O)N3CCc4ccccc4C3)n2)oc2c(C)cccc12` gave an RP-LC retention time of 1280 s. Take `COc1cccc(NC(=O)CCC2CCN(c3cc(NC4CC4)ncn3)CC2)c1`: the RP-LC retention time amounted to 674 s. Compound `O=C(NCCCN1CCOCC1)c1ccc2c(c1)NC(=O)C1CCCCN21` (stereo not given) returned an RP-LC retention time of 582 s. `CCCCOc1ccc(C(=O)N2CCN(c3cc(C)nc(N4CCCC4)n3)CC2)cc1` had an RP-LC retention time of 788 s. `C[C@@H](NCCc1ccc(O)cc1)[C@@H](O)c1ccc(O)cc1` came in with an RP-LC retention time of 362 s. For `Cc1cccn2cc(-c3cccc(NS(=O)(=O)c4ccc(Cl)c(Cl)c4)c3)nc12`, the RP-LC retention time stood at 747 s. Regarding `O=C(O)CCCC(=O)Nc1nc(-c2ccccc2)c(-c2ccccc2)s1`, the RP-LC retention time was found to be 893 s. The compound `Cc1ccc(-n2c(=O)c3c(cc(C)n3C)n(CC(=O)Nc3ccccc3C)c2=O)cc1` yielded an RP-LC retention time of 846 s. Regarding `COc1ccc(C2CC(=O)N(c3ccc(Cl)cc3)C(=O)C2)cc1`, the RP-LC retention time amounted to 942 s. On to `Cc1cc(S(=O)(=O)N2CCC(n3cnnc3C)CC2)ccc1F`, for which the RP-LC retention time turned out to be 702 s. As for `COCCNC(=O)N1c2ccccc2NC2=C(C(=O)CC(C)(C)C2)C1c1ccc(OC)cc1` (stereo not given), the figure is 704 s; as for `COC(=O)c1ccc(NCc2cc(O)ccc2O)cc1`, 680 s. The result for `CCN(CC)C(=O)c1ccc2oc(CN3CCN(C(=O)NCc4ccco4)CC3)nc2c1` reads 626 s. Consider `COCC(=O)NC1CCC12CCN(C(=O)C(C)C)CC2` (stereo not given), for which the RP-LC retention time was found to be 636 s. `CC(C)n1cc2cc(C(=O)N3CCN(Cc4ccc5c(c4)OCO5)CC3)sc2c1` displayed an RP-LC retention time of 696 s.

`COc1cc(-c2nc3ccc(C)cn3c2Nc2ccccc2C)ccc1O` gave an RP-LC retention time of 661 s. `COc1ccccc1-c1noc(C2CCCN2C(=O)Nc2ccc(Br)cc2)n1` (stereo not given) registered an RP-LC retention time of 964 s. The compound `CCc1ccc(C2=C(C)C(N3CCCN(C(=O)CC4CCCC4)CC3)=NS2(=O)=O)cc1` registered an RP-LC retention time of 984 s. As for `CCOC(=O)c1c(C)oc2nc(C)nc(N3CCc4cc(OC)c(OC)cc4C3C)c12` (stereo not given), the figure is 1060 s; as for `Cc1cc(NC(=O)CSc2nncn2C)no1`, 554 s; as for `CCc1nc2c(c(=O)n1CC(=O)NCc1cccc(C)c1)CN(Cc1ccccc1)CC2`, 661 s.

In turn, `CCOc1ccc(-c2c(C)nn3c(C)c(C(=O)NCC4CCCN4CC)cnc23)cc1OCC` (stereo not given) registered an RP-LC retention time of 667 s. `CCN1CCN(S(=O)(=O)c2ccc(-c3cc(C(F)(F)F)on3)o2)CC1` yielded an RP-LC retention time of 691 s. In turn, `c1cnn(-c2ccc(-c3noc(C4CCC4)n3)cn2)c1` showed an RP-LC retention time of 1090 s. Compound `c1cc(-c2noc(-c3ccoc3)n2)cc(-c2ccn[nH]2)c1` gave an RP-LC retention time of 839 s. In turn, `O=C(CSC1=N/C(=C/c2ccc3c(c2)OCO3)C(=O)N1c1ccccc1)c1ccccc1` came in with an RP-LC retention time of 1100 s. With `CCN(Cc1ccc(Cl)cc1)Cc1cc(=O)n2cccc(C)c2n1`, the RP-LC retention time is 648 s. As for `O=C(Cc1cccc2ccccc12)NCC1CCN(Cc2cccs2)CC1`, the RP-LC retention time was 572 s. As for `Cc1ccccc1CNC(=O)Cn1c(=O)c2nnc(C)n2c2ncccc21`, the figure is 672 s. Consider `COC(=O)c1cc2nc(-c3ccc(F)cc3)cc(C)n2n1`, for which the RP-LC retention time came out at 866 s.

`O=C(c1cc(Cl)ccc1F)N1CCN(C(=O)c2nnn3c2COC(c2ccccc2)C3)CC1` (stereo not given) came in with an RP-LC retention time of 909 s.

For `CC(=O)N1CCc2ccc(C(=O)N3CCCCCC3)cc21`, the RP-LC retention time was found to be 709 s. In the case of `O=C(NCc1ccc(F)cc1F)c1ccc2ncnc(N3CCCCC3)c2c1`, the RP-LC retention time is 680 s.

`COc1ccc(C2(C(=O)N3CCCC(CN4CCCC4)CC3)CC2)cc1` (stereo not given): the RP-LC retention time was 618 s.

`Cn1nc(-c2nc(C3CC3)no2)c2c1CCN(C(=O)Nc1cccc(F)c1)C2` registered an RP-LC retention time of 840 s. The compound `Cc1ccc(CNC(=O)CN2C(=O)CCc3cc(Br)ccc32)cc1` yielded an RP-LC retention time of 917 s.

On to `CCOc1ccc(NC(=O)COc2cc(C)nc(N3CCN(c4ccccc4)CC3)n2)cc1`, for which the RP-LC retention time stood at 839 s. For the compound `CCCc1cc(N2CCN(C(=O)C3CCN(C(C)=O)CC3)CC2)nc2nnc(CC)n12`, the RP-LC retention time was determined as 587 s. As for `Cc1ccc(SCC(=O)N2CCN(c3ccccc3)CC2)cc1`, the RP-LC retention time came to 942 s.

In turn, `Cc1ccc(NC(=O)C2CCCN(c3ncnc4c3oc3ccccc34)C2)cc1` (stereo not given) returned an RP-LC retention time of 825 s.

Compound `Cc1nnc2c(=O)n(CC(=O)NCc3ccc(C(F)(F)F)cc3)c3cccnc3n12` had an RP-LC retention time of 728 s. As for `O=C(NC1CCCCCC1)c1cc(NS(=O)(=O)c2ccc(Cl)cc2)cnc1N1CCNCC1`, the figure is 698 s; as for `CCn1ccc2sc(C)c(C(=O)NCc3c(C)cc(C)cc3C)c2c1=O`, 982 s. The compound `O=C(Nc1ccc(C(F)(F)F)cc1)N1CCCC1c1nncn1C1CCCC1` (stereo not given) registered an RP-LC retention time of 781 s. For `CCOC(=O)CCCn1nc(C)c2nn(-c3ccccc3)c(-n3cccc3)c2c1=O`, the RP-LC retention time was 1060 s. As to `OC1(c2ccccn2)CCOC2(CCN(Cc3cccc(C(F)(F)F)c3)CC2)C1` (stereo not given), the RP-LC retention time was found to be 592 s.

The compound `CCOC(=O)c1ccc(Nc2c(-c3cccc(Br)c3)nc3cnccn23)cc1` had an RP-LC retention time of 986 s. In turn, `COc1cccc(CNC(=O)C2(C)CCCN(C(=O)Nc3cccc(Br)c3)C2)c1` (stereo not given) gave an RP-LC retention time of 993 s.

Compound `O=C(Nc1ccc(OCC(F)(F)C(F)F)cc1)c1ccncc1` gave an RP-LC retention time of 683 s.

With `O=C(Nc1ccccc1Cl)c1c(O)c2cccnc2n(-c2cccc(F)c2)c1=O`, the RP-LC retention time is 1270 s. Turning to `Cc1ccc(NC(=O)N2CCCC(CCC(=O)NCCC3=CCCCC3)C2)cc1` (stereo not given), the RP-LC retention time turned out to be 947 s. In turn, `Cc1cc(C)cc(NC(=O)C2CC(=O)N(c3ccc4oc(C)nc4c3)C2)c1` (stereo not given) showed an RP-LC retention time of 801 s. The result for `O=C(NCc1ccccc1F)c1ccc(NC(=O)C2CCC2)cc1N1CCOCC1` reads 853 s. `CCc1nc(-c2csc(S(=O)(=O)N3CCC(C(=O)NCc4ccccn4)CC3)c2)no1` came in with an RP-LC retention time of 654 s. The compound `Fc1ccc2[nH]c(CN3CCN(c4ccccn4)CC3)cc2c1` gave an RP-LC retention time of 649 s.

`Cc1noc(CN2CCN(C3CCN(Cc4cc(Cl)ccc4F)C3)C2=O)n1` (stereo not given): the RP-LC retention time worked out at 713 s. As for `CCCCNC(=O)C1CCCN(C(=O)Nc2ccc(S(=O)(=O)N(CC)CC)s2)C1` (stereo not given), the RP-LC retention time came to 849 s.

Consider `COCCCNC(=O)c1ccc(-c2nc(CSc3ccccc3)c(C)o2)cc1`, for which the RP-LC retention time was found to be 934 s.

Take `Nc1nc(Nc2ccccc2)nc2c1ncn2[C@@H]1O[C@H](CO)[C@H](O)C1O` (stereo not given in full): the RP-LC retention time was 579 s. As for `O=c1n(CCOc2ccc(F)cc2)nc2ccc(S(=O)(=O)N3CCCCC3)cn12`, the figure is 938 s. Compound `O=C(CSc1nc(N2CCCCC2)nc2ccccc12)Nc1ccccc1` returned an RP-LC retention time of 702 s.
